Values of other authors as cited in patent US4410516A, “1-N(αHydroxy-ω-aminoalkanoyl) derivatives of 5,3',4'-trideoxy- or 5,3', 4'-trideoxy-6'-N- methyl- or 5, 3', 4',6"-tetradeoxykannamyci B and production thereof” (Zaidan Hojin Biseibutsu Kagaku Kenkyu Kai, priority 1981, dated 1983).
Entries after “also recorded” stand apart in the source; their conditions may differ.

What was measured:
bacteria = details: in words, earlier work / other filings; cited from earlier work
[1] = in words, other filings; cited from earlier work
animals, including men = details: in words, other filings; cited from earlier work

Row | SMILES | antibacterial activity (bacteria) | oto-toxicity [1] | acute toxicity (animals, including men)
1 | C[C@@H]1C[C@H](N)[C@@H](O)[C@@H](O[C@@H]2[C@@H](O)[C@H](O[C@H]3O[C@H](CN)CC[C@H]3O)[C@@H](N)C[C@H]2NC(=O)[C@@H](O)CCN)O1 [3',4',4",6"-tetradeoxyamikacin] | useful antibacterial activity as high as that of amikacin | low oto-toxicity | low acute toxicity
2 | C[C@H]1O[C@H](O[C@@H]2[C@@H](O)[C@H](O[C@H]3O[C@H](CN)[C@@H](O)[C@H](O)[C@H]3O)[C@@H](N)C[C@H]2NC(=O)[C@@H](O)CCN)[C@H](O)[C@@H](N)[C@@H]1O [6"-deoxyamikacin] | useful antibacterial activity as high as that of amikacin | low oto-toxicity | low acute toxicity
3 | C[C@@H]1C[C@H](N)[C@@H](O)[C@@H](O[C@@H]2[C@@H](O)[C@H](O[C@H]3O[C@H](CN)[C@@H](O)[C@H](O)[C@H]3O)[C@@H](N)C[C@H]2NC(=O)[C@@H](O)CCN)O1 [4",6"-dideoxyamikacin] | useful antibacterial activity as high as that of amikacin | low oto-toxicity | low acute toxicity
4 | NCC[C@H](O)C(=O)N[C@@H]1C[C@H](N)[C@@H](O[C@H]2O[C@H](CN)[C@@H](O)C[C@H]2O)[C@H](O)[C@H]1O[C@H]1O[C@H](CO)[C@@H](O)[C@H](N)[C@H]1O [3'-deoxyamikacin] | useful antibacterial activity as high as that of amikacin | low oto-toxicity | low acute toxicity
5 | NCC[C@H](O)C(=O)N[C@@H]1C[C@H](N)[C@@H](O[C@H]2O[C@H](CN)CC[C@H]2O)[C@H](O)[C@H]1O[C@H]1O[C@H](CO)[C@@H](O)[C@H](N)[C@H]1O [3',4'-dideoxyamikacin] | useful antibacterial activity as high as that of amikacin | low oto-toxicity | low acute toxicity
6 | C[C@H]1O[C@H](O[C@@H]2C[C@H](O[C@H]3O[C@H](CN)[C@@H](O)C[C@H]3O)[C@@H](N)C[C@H]2NC(=O)[C@@H](O)CCN)[C@H](O)[C@@H](N)[C@@H]1O [5,3',6"-trideoxyamikacin] | useful antibacterial activity as high as that of amikacin | low oto-toxicity | low acute toxicity
7 | NC[C@@H]1CC[C@@H](N)[C@@H](O[C@H]2[C@H](O)[C@@H](O[C@H]3O[C@H](CO)[C@@H](O)[C@H](N)[C@H]3O)[C@H](N)C[C@@H]2N)O1 [Dibekacin, 3',4'-dideoxykanamycin B] | active against the kanamycin-sensitive bacteria and also against various kanamycin-resistant bacteria | – | –
8 | NC[C@@H]1CC[C@@H](N)[C@@H](O[C@H]2C[C@@H](O[C@H]3O[C@H](CO)[C@@H](O)[C@H](N)[C@H]3O)[C@H](N)C[C@@H]2N)O1 [5,3',4'-trideoxykanamycin B] | less active than dibekacin; also recorded: exhibits no useful anti-bacterial activity | – | –
9 | C[C@H]1O[C@H](O[C@@H]2[C@@H](O)[C@H](O[C@H]3O[C@H](CN)CC[C@H]3O)[C@@H](N)C[C@H]2NC(=O)[C@@H](O)CCN)[C@H](O)[C@@H](N)[C@@H]1O [3',4',6"-trideoxyamikacin] | useful antibacterial activity as high as that of amikacin | low oto-toxicity | low acute toxicity
10 | C[C@H]1O[C@H](O[C@@H]2[C@@H](O)[C@H](O[C@H]3O[C@H](CN)[C@@H](O)C[C@H]3O)[C@@H](N)C[C@H]2NC(=O)[C@@H](O)CCN)[C@H](O)[C@@H](N)[C@@H]1O [3',6"-dideoxyamikacin] | useful antibacterial activity as high as that of amikacin | low oto-toxicity | low acute toxicity
11 | NCC[C@H](O)C(=O)N[C@@H]1C[C@H](N)[C@@H](O[C@H]2O[C@H](CN)[C@@H](O)C[C@H]2O)C[C@H]1O[C@H]1O[C@H](CO)[C@@H](O)[C@H](N)[C@H]1O [5,3'-dideoxyamikacin] | useful antibacterial activity as high as that of amikacin | low oto-toxicity | low acute toxicity
